Measurements as given in US6380465B1, “Cytochrome P450 enzymes and related compounds and methods” (University of Kentucky Research Foundation, priority 1998, dated 2002).

What was measured:
CYP73A1 = molecular target: T1, CYP73A1 (Helianthus tuberosus, UniProt Q04468); details: cited from earlier work
T1 sequence (Q04468 1-505): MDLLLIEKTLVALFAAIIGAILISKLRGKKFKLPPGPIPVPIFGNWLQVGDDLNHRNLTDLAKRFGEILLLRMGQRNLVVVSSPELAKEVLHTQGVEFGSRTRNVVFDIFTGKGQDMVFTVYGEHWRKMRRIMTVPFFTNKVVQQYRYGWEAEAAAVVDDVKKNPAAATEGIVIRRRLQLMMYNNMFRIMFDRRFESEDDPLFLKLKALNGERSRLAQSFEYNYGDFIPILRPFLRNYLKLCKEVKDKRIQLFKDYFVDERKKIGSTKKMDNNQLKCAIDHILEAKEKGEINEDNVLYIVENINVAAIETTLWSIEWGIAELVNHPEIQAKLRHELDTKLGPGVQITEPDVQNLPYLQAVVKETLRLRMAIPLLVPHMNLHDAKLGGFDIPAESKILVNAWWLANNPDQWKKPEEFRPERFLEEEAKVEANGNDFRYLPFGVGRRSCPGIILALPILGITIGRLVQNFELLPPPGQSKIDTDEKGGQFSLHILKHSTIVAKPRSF

soybean P450 = details: cited from earlier work
CYP72A1 P450 = assay: Metabolism of pesticide substrates by the CYP72A1 P450 expressed with a reductase (yeast microsomes, [14C]-labeled substrates, HPLC); format: in vitro ADME, Zea mays (maize); details: expressed in the presence of a reductase; chromatographs FIGS. 8-11
Description: Both genes (CYP72A1 and CYP92A1), obtained as described in Example 1, were introduced into pYeDP60 vector for yeast expression. CYP72A1 was introduced as a full length gene with in-frame Met 1 and 8 as the start codons, while CYP92A1 was modified for the expression.
Expression strategies include using both full length or truncated (Met 8 start site) CYP72A1 cDNA in yeast strains WAT11, WAT21 W (R) from Philippe Urban and Denis Pompon, with, optionally, yeast vector pYeDP60. Expression is ideally achieved with full length cDNA and WAT11. Expression may also require 36 hours rather than 24 hours of galactose induction prior to microsome preparation. Glucose (SGI) or galactose (SLI) media prior to induction will give expression.
Metabolism experiments can be accomplished using microsomes prepared from yeast cells. The substrates can be incubated with [^14C]-labeled substrates and products analyzed by HPLC.

[1] = system: multiple pesticide metabolizing P450 in corn; details: FIG. 13, cited from earlier work
corn line GA209 = details: FIG. 12, thesis of Laura Boldt; cited from earlier work
CYP72A1 = assay: Induction of CYP72A1 expression by NA-treatment (Northern blot, maize seedlings); format: in vivo; details: FIG. 5
Method: (§1) A maize cDNA library was constructed from napthalic anhydride (NA)-treated Pioneer 3343IR 3.5-day-old seedlings using lambda-ZAPII vector kit (Stratagene).
(§2) Northern blot analysis was performed with total RNA isolated from control and […] and hybridized under high stringency conditions. To estimate the copy number, Southern blot analysis was performed using genomic DNA from 3343IR maize which was digested with SacI EcoRV, EcoRI, HindIII, and BamHI. The analysis was carried out under high stringency (65 degrees Celsius in 0.1×SSC and 0.1% SDS).
(§3) Based on the results of the genomic Southern blot analysis, the hybridization patterns were consistent with those predicted from the restriction patterns of the corresponding cDNAs. […] Certain physico-chemical characteristics for the deduced proteins, antigenicity and secondary structure were calculated using Network Protein Sequence Analysis at IBCP, France.

CYP92A1 = assay: Induction of CYP92A1 expression by NA-treatment (Northern blot, maize seedlings); format: in vivo; details: FIG. 5
Method: as §1, §2, §3

SMILES | metabolism of the substrate by the CYP72A1 P450 (CYP72A1 P450) | sensitivity of corn line GA209 to the herbicide (corn line GA209) | other results
Cc1ccc(NC(=O)N(C)C)cc1Cl [chlortoluron] | shown to metabolize |  | metabolism by CYP73A1 (CYP73A1): shown to metabolize; metabolism by a soybean P450 (soybean P450): shown to metabolize
CCOP(=S)(OCC)SCS(=O)(=O)C(C)(C)C [terbufos-sulfone] |  |  | inhibition of in-vitro metabolism of bentazon ([1]; substrate bentazon): inhibited; inhibition of in-vitro metabolism of chlorimuron ([1]; substrate chlorimuron): inhibited; inhibition of in-vitro metabolism of imazethapyr ([1]; substrate imazethapyr): inhibited; inhibition of in-vitro metabolism of malathion ([1]; substrate malathion): inhibited; inhibition of in-vitro metabolism of nicosulfuron ([1]; substrate nicosulfuron): inhibited
O=C(O)COc1ccc(Cl)cc1Cl [2,4-D] | Unmetabolized |  | 
CCc1cnc(C2=NC(C)(C(C)C)C(=O)N2)c(C(=O)O)c1 (stereo not drawn) [imazethapyr] |  | sensitive | 
CCc1cccc(CC)c1N(COC)C(=O)CCl [alachlor] | Unmetabolized |  | 
COc1cc(Cl)nc(NC(=O)NS(=O)(=O)c2ccccc2C(=O)O)n1 [chlorimuron] | shown to metabolize |  | 
O=C(Nc1nc(OC(F)F)cc(OC(F)F)n1)NS(=O)(=O)c1ccccc1C(=O)O [primisulfuron] |  | sensitive | 
CCOC(=O)CC(SP(=S)(OC)OC)C(=O)OCC (stereo not drawn) [malathion] | shown to metabolize |  | 
COc1cc(OC)nc(NC(=O)NS(=O)(=O)c2ncccc2C(=O)N(C)C)n1 [nicosulfuron] |  | sensitive | 
O=C1OC(=O)c2cccc3cccc1c23 [NA, napthalic anhydride] |  |  | induction of CYP72A1 expression (CYP72A1): highly induced; induction of CYP92A1 expression (CYP92A1): induced significantly less
CC(C)N1C(=O)c2ccccc2NS1(=O)=O [bentazon] | shown to metabolize | sensitive | 
CON(C)C(=O)Nc1ccc(Cl)c(Cl)c1 [linuron] | Unmetabolized |  | metabolism by a soybean P450 (soybean P450): shown to metabolize
